Experimental data: US20210315175A1, “METHODS OF MAKING FEMINIZED CANNABIS SATIVA SEED AND COMPOSITIONS THEREOF” (priority 2019, published 2021)

Assays:
[1] = system: genetically female Cannabis ssp plants; assay: AIB root drench: induction of male flowers and phytotoxicity (Example 21); format: in vivo
Experimental: To determine if the ethylene inhibitor 2-Aminoisobutyric acid (AIB) can induce male flowers on genetically female Cannabis ssp plants, three different rates of 2-Aminoisobutyric acid (AIB) were applied to plants as a root drench, with two applications per rate. The first application occurred 79 days after seeding, which was on the day plants were transitioned from a vegetative, long day photoperiod (18 h day) to a reproductive, short day photoperiod (12 h day), and the second treatment was applied 5 days later. The stem diameter of the plants on the day of the first treatment were 9 to 10 mm and the plants ranged from 37 to 54 cm in height. The three rates tested were 50, 150 and 300 mM AIB in water, and 150 ml of solution was applied to the roots as a soil drench.

[2] = system: genetically female Cannabis ssp plants; assay: 1-MCP root drench: induction of male flowers (Example 19); format: in vivo; conditions: 0.27 mM or 0.54 mM 1-MCP root drench, three treatments, 3 varieties
Experimental: To determine if the ethylene inhibitor 1-Methylcyclopropene (1-MCP) can induce male flowers on genetically female Cannabis ssp plants, 1-MCP was applied at two different rates to 3 different varieties, with 2 replicates per treatment. The plants were treated with 1-MCP three times, with the first treatment 51 days after seeding, which was on the day plants were transitioned from a vegetative, long day photoperiod (18 h day) to a reproductive, short day photoperiod (12 h day), the second treatment was applied 7 days later and the third treatment was 8 days after the second. For the first two treatments the low rate was 0.27 mM 1-MCP and 25 ml solution per plant was immediately applied as a root drench. The high rate was 0.54 mM and similarly, 25 ml of solution was applied as a root drench. For the third treatment, the dose was doubled by applying 50 ml of the solutions described above, as the plants were larger.

Row | SMILES | survival and male structures ([1]; 50 and 150 mM AIB, two root drenches) | phytotoxicity ([1]; after the second treatment, particularly in the highest rate) | plant survival ([1]; highest rate (300 mM AIB), two root drenches) | phytotoxicity in leaf and meristematic tissues ([1]; within 2 days of the first treatment, 50, 150 and 300 mM AIB, 150 ml root drench) | chlorosis [2] | male structures [2]
1 | CC(C)(N)C(=O)O [AIB, 2-Aminoisobutyric acid] | survived and produced small male structures that did not produce viable pollen | more severe phototoxicity | the plant ultimately died | Mild phytotoxicity | – | –
2 | CC1=CC1 [1-MCP, 1-Methylcyclopropene] | – | – | – | – | mild chlorosis of growing apices | no clear or consistent male structures were observed in any of the treatments
